Data set [1] concerns the target T1, human Nav1.5 (Homo sapiens (Human), UniProt Q14524). As to the kind of experiment: Qpatch automated patch-clamp, peak Nav1.5 current inhibition, 5-Hz AF-like assay (holding potential -85 mV). It is filed as cell-based. The source says: (§1) Electrophysiology was used to measure the ionic currents in isolated living cells using automated patch-clamp recording, performed using an automated patch-clamp machine called Qpatch (Sophion Bioscience). Two different assay conditions were used to identify compounds with atrial-selective potential. The 5-Hz AF-like assay has more depolarized holding potential at −85 mV to mimic atrial resting membrane potential (RMP) and was used to identify compounds of strong rate-dependence. Active, rate-dependent compounds were then screened at 1 Hz (i.e., sinus rate) at the holding potential of −100 mV to mimic the ventricular scenario and help identify compounds with the largest potency separation or attenuation from the 5-Hz AF-like assay. Such compounds have the potential for treating AF without the QRS liability inherent to Class Ic drugs.
(§2) The sodium current conducted through a cell (via Nav1.5) or electrical signals were processed through a low-pass filter at 5 KHz, re-digitalized and acquired at 20 kHz. Series resistance was not compensated and leak subtraction was performed.
(§3) 1 to 3 million Chinese Hamster Ovary cells (also known as CHO-K1) stably expressing human Nav1.5 were seeded into […] culture flasks with 25 mL medium (consisting of Gibco Dulbecco's Modified Eagle Medium as a base medium with 1% MEM non-essential amino acids, 400 μg/mL Geneticin, 5 μg/mL puromycin and 10% fetal bovine serum) 48-72 hours prior to the experiments. On the day of the experiment, cells were washed once with phosphate-buffered saline (also known as PBS; Gibco) detached with Detachin™ (Genlantis), and re-suspended in CHO—S-SFM II media (Gibco) at 200,000 cells/mL. The CHO—S-SFM II was replaced with assay solutions prior to the assays. Whole-cell currents were recorded at room temperature in the whole-cell configuration. The external aqueous assay solution (pH=7.4; Osm=307-315) contained the following (the concentration for each component is expressed in parentheses in mM): NaCl (140 mM), KCl (4 mM), CaCl2) (2 mM), MgCl2 (1 mM), 4-(2-hydroxyethyl)-1-piperazineethanesulfonic acid, also known as HEPES (10 mM), and glucose (5 mM). The internal aqueous assay solution (pH=7.2; Osm=292-295) contained the following (the concentration for each component is expressed in parentheses in mM): CsF (110 mM), CsCl (10 mM), NaCl (10 mM), HEPES (10 mM), and ethylene glycolbis(β-aminoethyl ether)-N,N,N′,N′-tetraacetic acid, also known as EGTA (10 mM).
To assess peak Nav1.5 current inhibition in an atrial fibrillation-mimicking condition (Nav1.5 IC50 (5 Hz, AF-like rate) (μM)), compounds were first prepared at 10 mM in DMSO, and cells were pre-incubated with test compounds at each concentration for 3 min. in an ascending order of 0, 0.37, 1.1, 3.3, 10 and 30 μM. An atrial action potential-like protocol consisting of a voltage ramp (+10 mV to −85 mV for a 150 ms duration and a holding potential at −85 mV) was then applied to cells at 5 Hz for 12 s until no further current change or inhibition was observed. The percent inhibition (expressed as ([Iafter compound treatment/Ibefore compound treatment]×100%) is calculated by normalizing the peak current amplitude at the last pulse of each of the 6 compound concentrations by the amplitude before exposure to the test compound. The compiled data was further normalized by vehicle control (DMSO) to account for Nav1.5 current run-down, and IC50 was calculated by Matlab (MathWorks, USA).

Data set [2] addresses T1, human Nav1.5. Description: Qpatch automated patch-clamp, peak Nav1.5 current inhibition, 1 Hz with 50 nM ATX-II (holding potential -100 mV). Format: cell-based. The settings on record: CHO-K1 cells stably expressing human Nav1.5, read-out: Nav1.5 IC50 (1 Hz, ATXII).
From the text: as §1, §2, §3
To assess peak Nav1.5 current inhibition mimicking a ventricular condition at sinus rate with or without ATX-II (Nav1.5 IC50 (1 Hz, ATXII) (μM) or (1 Hz, Sinus Rate) (μM)), compounds were first prepared at 10 mM in DMSO, and cells were pre-incubated with test compounds at each concentration for 3 min. in an ascending order of 0, 0.37, 1.1, 3.3, 10 and 30 uM. In the assay with ATX-II (Alomone Labs), 50 nM ATX-II was included during the 3-min. compound incubation. A square pulse (−10 mV; 400 ms and a holding potential at −100 mV) was run at 1 Hz for 25 s until no further inhibition or Nav1.5 current change was observed. The percent inhibition (expressed as ([Iafter compound treatment/Ibefore compound treatment]×100%) is calculated by normalizing the peak current amplitude at the last pulse of each of the 6 compound concentrations by the amplitude before exposure to the test compound. The compiled data was further normalized by vehicle control (DMSO) to account for Nav1.5 current run-down, and IC50 was calculated by Matlab (MathWorks, USA).

The mark [3] stands for this setting: CHO-K1 cells stably expressing human Nav1.5, holding potential -85 mV, Table 5, read-out: Nav1.5 IC50 (5 Hz, AF Rate).
The mark [4] stands for this setting: CHO-K1 cells stably expressing human Nav1.5, Table 6, Examples 63-90, read-out: Nav1.5 IC50 (5 Hz, AF Rate).

T1 sequence (Q14524 whole entry): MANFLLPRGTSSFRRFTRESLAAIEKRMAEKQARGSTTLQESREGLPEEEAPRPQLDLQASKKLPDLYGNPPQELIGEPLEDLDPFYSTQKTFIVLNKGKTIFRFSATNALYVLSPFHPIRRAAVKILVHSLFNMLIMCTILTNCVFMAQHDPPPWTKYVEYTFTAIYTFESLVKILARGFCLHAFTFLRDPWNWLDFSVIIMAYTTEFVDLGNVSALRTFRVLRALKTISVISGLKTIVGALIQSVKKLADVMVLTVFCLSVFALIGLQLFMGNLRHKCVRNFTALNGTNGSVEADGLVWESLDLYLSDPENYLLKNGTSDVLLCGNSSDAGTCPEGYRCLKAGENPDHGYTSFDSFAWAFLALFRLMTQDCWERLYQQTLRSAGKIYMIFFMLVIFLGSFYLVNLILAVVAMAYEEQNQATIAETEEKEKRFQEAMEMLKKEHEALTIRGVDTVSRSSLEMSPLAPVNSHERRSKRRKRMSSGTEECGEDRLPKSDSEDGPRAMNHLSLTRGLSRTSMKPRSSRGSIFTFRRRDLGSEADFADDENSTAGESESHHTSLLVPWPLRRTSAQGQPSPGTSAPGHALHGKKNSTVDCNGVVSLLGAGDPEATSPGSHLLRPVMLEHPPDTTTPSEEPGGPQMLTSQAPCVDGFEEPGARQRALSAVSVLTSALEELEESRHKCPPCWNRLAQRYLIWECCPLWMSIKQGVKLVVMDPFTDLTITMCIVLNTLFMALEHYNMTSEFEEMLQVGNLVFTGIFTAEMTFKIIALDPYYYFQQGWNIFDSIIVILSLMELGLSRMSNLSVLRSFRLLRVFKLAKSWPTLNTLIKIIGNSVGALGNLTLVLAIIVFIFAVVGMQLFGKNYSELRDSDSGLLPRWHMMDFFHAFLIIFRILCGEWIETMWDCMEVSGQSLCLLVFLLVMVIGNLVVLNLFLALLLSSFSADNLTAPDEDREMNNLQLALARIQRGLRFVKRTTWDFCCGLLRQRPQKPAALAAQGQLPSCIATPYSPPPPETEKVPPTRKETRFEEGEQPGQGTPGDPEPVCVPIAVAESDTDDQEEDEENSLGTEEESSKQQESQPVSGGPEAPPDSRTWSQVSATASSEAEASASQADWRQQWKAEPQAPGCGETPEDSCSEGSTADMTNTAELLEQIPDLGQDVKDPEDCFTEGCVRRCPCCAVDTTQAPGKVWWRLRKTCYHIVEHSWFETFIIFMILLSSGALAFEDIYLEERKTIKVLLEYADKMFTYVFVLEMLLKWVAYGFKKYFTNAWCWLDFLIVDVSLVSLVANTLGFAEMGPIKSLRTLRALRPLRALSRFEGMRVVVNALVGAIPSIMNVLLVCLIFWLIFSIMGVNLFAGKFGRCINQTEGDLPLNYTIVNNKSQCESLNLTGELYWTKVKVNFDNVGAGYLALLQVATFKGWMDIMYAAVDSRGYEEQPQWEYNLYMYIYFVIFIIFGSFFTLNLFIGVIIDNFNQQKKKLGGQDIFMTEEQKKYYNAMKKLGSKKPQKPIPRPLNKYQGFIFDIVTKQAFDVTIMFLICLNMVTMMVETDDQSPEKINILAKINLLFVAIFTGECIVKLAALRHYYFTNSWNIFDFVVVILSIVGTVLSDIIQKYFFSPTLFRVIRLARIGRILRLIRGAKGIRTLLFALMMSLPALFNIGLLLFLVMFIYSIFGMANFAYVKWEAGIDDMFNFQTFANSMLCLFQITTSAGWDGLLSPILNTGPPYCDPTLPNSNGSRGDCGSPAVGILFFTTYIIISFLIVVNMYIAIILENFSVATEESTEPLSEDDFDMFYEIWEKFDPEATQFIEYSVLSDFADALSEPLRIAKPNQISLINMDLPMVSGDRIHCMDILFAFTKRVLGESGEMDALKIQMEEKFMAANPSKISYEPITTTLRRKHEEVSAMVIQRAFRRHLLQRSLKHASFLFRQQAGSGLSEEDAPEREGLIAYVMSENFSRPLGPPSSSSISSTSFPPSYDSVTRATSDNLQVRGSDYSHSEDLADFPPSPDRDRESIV

With `CC(O)(CS(N)(=O)=O)c1cccc(-c2nc(Cc3cc(OC(F)(F)F)ccc3F)no2)n1` (single isomer, unassigned) [Example 58, (R or S)-2-(6-(3-(2-fluoro-5-(trifluoromethoxy)benzyl)-1,2,4-oxadiazol-5-yl)pyridin-2-yl)-2-hydroxypropane-1-sulfonamide], the IC50 at human Nav1.5 [1] (setting [3]) was 5 µM; at human Nav1.5 [2], more than 30 µM.
For the compound `CC(O)(CS(N)(=O)=O)c1cccc(-c2ccn(Cc3cc(OC(F)(F)F)ccc3F)n2)n1` (single isomer, unassigned) [Example 38, (R or S)-2-(6-(1-(2-fluoro-5-(trifluoromethoxy)benzyl)-1H-pyrazol-3-yl)pyridin-2-yl)-2-hydroxypropane-1-sulfonamide], the values for the IC50 on human Nav1.5 [1] (setting [3]) and at human Nav1.5 [2] were 4.3 µM and more than 30 µM, respectively.
In the case of `CC(O)(CS(N)(=O)=O)c1cccc(-c2nnn(Cc3cc(C(F)(F)F)ccc3F)n2)n1` (single isomer, unassigned) [Example 20, (R or S)-2-(6-(2-(2-fluoro-5-(trifluoromethyl)benzyl)-2H-tetrazol-5-yl)pyridin-2-yl)-2-hydroxypropane-1-sulfonamide], the IC50 at human Nav1.5 [1] (setting [3]) was found to be 7.9 µM; on human Nav1.5 [2], 23 µM.
Take `CC(O)(CS(N)(=O)=O)c1cccc(-c2nnn(Cc3cc(Cl)ccc3F)n2)n1` (single isomer, unassigned) [Example 22, (R or S)-2-(6-(2-(5-chloro-2-fluorobenzyl)-2H-tetrazol-5-yl)pyridin-2-yl)-2-hydroxypropane-1-sulfonamide]: the IC50 at human Nav1.5 [1] (setting [3]) came to 8.4 µM; at human Nav1.5 [2], 22 µM.
For `CC(O)(CS(N)(=O)=O)c1cccc(-c2cnn(Cc3cc(OC(F)(F)F)ccc3F)n2)n1` (racemic) [Rac-61 + 62], the values for the IC50 at human Nav1.5 [1] (setting [3]) and at human Nav1.5 [2] were 3.4 µM and more than 30 µM, respectively.
Take `CC(O)(CS(N)(=O)=O)c1cccc(-c2cn(Cc3cc(OC(F)(F)F)ccc3F)nn2)n1` (single isomer, unassigned) [Example 60, (R or S)-2-(6-(1-(2-fluoro-5-(trifluoromethoxy)benzyl)-1H-1,2,3-triazol-4-yl)pyridin-2-yl)-2-hydroxypropane-1-sulfonamide]: the IC50 on human Nav1.5 [1] (setting [3]) was 7 µM; at human Nav1.5 [2] it was 16 µM.
For `CC(O)(CS(N)(=O)=O)c1ccc(Cl)c(-c2nnn(Cc3cc(OC(F)(F)F)ccc3F)n2)n1` (single isomer, unassigned) [Example 28, (R or S)-2-(5-chloro-6-(2-(2-fluoro-5-(trifluoromethoxy)benzyl)-2H-tetrazol-5-yl)pyridin-2-yl)-2-hydroxypropane-1-sulfonamide] the same measures were 0.7 µM and 3.2 µM.
The matching figures for `CC(O)(CS(N)(=O)=O)c1cccc(-c2nc(Cc3cc(OC(F)(F)F)ccc3F)no2)n1` (single isomer, unassigned) [Example 57, (R or S)-2-(6-(3-(2-fluoro-5-(trifluoromethoxy)benzyl)-1,2,4-oxadiazol-5-yl)pyridin-2-yl)-2-hydroxypropane-1-sulfonamide]: 3.6 µM and 27 µM.
Regarding `CC(O)(CS(N)(=O)=O)c1ccc(Cl)c(-c2nnn(Cc3cc(OC(F)(F)F)ccc3F)n2)n1` (single isomer, unassigned) [Example 27, (R or S)-2-(5-chloro-6-(2-(2-fluoro-5-(trifluoromethoxy)benzyl)-2H-tetrazol-5-yl)pyridin-2-yl)-2-hydroxypropane-1-sulfonamide], the results for the IC50 on human Nav1.5 [1] (setting [3]) and on human Nav1.5 [2] were 0.8 µM and 4.1 µM, respectively.
For the compound `CC(O)(CS(N)(=O)=O)c1cccc(-c2nnn(Cc3cc(C(F)(F)F)ccc3F)n2)n1` (single isomer, unassigned) [Example 19, (R or S)-2-(6-(2-(2-fluoro-5-(trifluoromethyl)benzyl)-2H-tetrazol-5-yl)pyridin-2-yl)-2-hydroxypropane-1-sulfonamide], the 50% inhibitory concentration (IC50) at human Nav1.5 [1] (setting [3]) turned out to be 5 µM; on human Nav1.5 [2] it was 14 µM.
Take `CC(O)(CS(N)(=O)=O)c1nc(-c2nnn(Cc3cc(OC(F)(F)F)ccc3F)n2)ccc1Cl` (single isomer, unassigned) [Example 42, (R or S)-2-(3-chloro-6-(2-(2-fluoro-5-(trifluoromethoxy)benzyl)-2H-tetrazol-5-yl)pyridin-2-yl)-2-hydroxypropane-1-sulfonamide]: the IC50 at human Nav1.5 [1] (setting [3]) turned out to be 12 µM.
In the case of `COc1ccc(F)c(Cn2nnc(-c3cccc([C@@](C)(O)CS(N)(=O)=O)n3)n2)c1` [Example 76], the IC50 at human Nav1.5 [1] (setting [4]) is 17 µM.
For the compound `C[C@](O)(CS(N)(=O)=O)c1cccc(-c2nnn(Cc3c(C(F)(F)F)ccc(Cl)c3Cl)n2)n1` [Example 87], the IC50 at human Nav1.5 [1] (setting [4]) was determined as 9.3 µM.
Regarding `C[C@](O)(CS(N)(=O)=O)c1cccc(-c2nnn(Cc3cccc(Br)c3F)n2)n1` [Example 66], the IC50 on human Nav1.5 [1] (setting [4]) was 28 µM.
`Cc1ccc(C(C)C)cc1Cn1nnc(-c2cccc([C@@](C)(O)CS(N)(=O)=O)n2)n1` [Example 72]: at human Nav1.5 [1] (setting [4]), the IC50 amounted to 7.3 µM.
Take `CC(O)(CS(N)(=O)=O)c1cccc(-c2nnn(Cc3cc(OCC(F)(F)F)ccc3F)n2)n1` (single isomer, unassigned) [Example 30, (R or S)-2-(6-(2-(2-fluoro-5-(2,2,2-trifluoroethoxy)benzyl)-2H-tetrazol-5-yl)pyridin-2-yl)-2-hydroxypropane-1-sulfonamide]: the half-maximal inhibitory concentration (IC50) at human Nav1.5 [1] (setting [3]) was found to be 1 µM.
As to `CC(C(O)c1cccc(-c2nnn(Cc3cc(OC(F)(F)F)ccc3F)n2)n1)S(N)(=O)=O` (single isomer, unassigned) [Example 50, (JR or 1S,2R or 2S)-1-(6-(2-(2-fluoro-5-(trifluoromethoxy)benzyl)-2H-tetrazol-5-yl)pyridin-2-yl)-1-hydroxypropane-2-sulfonamide], the IC50 at human Nav1.5 [1] (setting [3]) was determined as 6.6 µM.
Regarding `CC(O)(CS(N)(=O)=O)c1cccc(-c2nc(Cc3cc(OC(F)(F)F)ccc3F)no2)n1` (racemic) [Rac-57 + 58, 2-(6-(3-(2-fluoro-5-(trifluoromethoxy)benzyl)-1,2,4-oxadiazol-5-yl)pyridin-2-yl)-2-hydroxypropane-1-sulfonamide], at human Nav1.5 [1] (setting [3]), the IC50 came to 3.7 µM.
With `C[C@](O)(CS(N)(=O)=O)c1cccc(-c2nnn(Cc3cc(OC(F)(F)F)ccc3Cl)n2)n1` [Example 77], on human Nav1.5 [1] (setting [4]), the IC50 was 13 µM.
As for `C[C@](O)(CS(N)(=O)=O)c1cccc(-c2nnn(Cc3c(F)cccc3C(F)(F)F)n2)n1` [Example 79], on human Nav1.5 [1] (setting [4]), the IC50 came out at 13 µM.
For `CC(O)(CS(N)(=O)=O)c1cccc(-c2nnn(Cc3cc(OC(F)(F)F)ccc3F)n2)c1` (single isomer, unassigned) [Example 26, (R or S)-2-(3-(2-(2-fluoro-5-(trifluoromethoxy)benzyl)-2H-tetrazol-5-yl)phenyl)-2-hydroxypropane-1-sulfonamide], the IC50 on human Nav1.5 [1] (setting [3]) turned out to be 1.8 µM.
On to `C[C@](O)(CS(N)(=O)=O)c1cccc(-c2nnn(Cc3cc(C(F)(F)F)ccc3Cl)n2)n1` [Example 74], for which, on human Nav1.5 [1] (setting [4]), the IC50 was determined as 21 µM.

For the origin of these results see patent US20250034108A1, “SODIUM CHANNEL BLOCKERS” (NOVARTIS AG, priority 2023, published 2025).
